Assay results reported in patent US8716292B2, “Riminophenazines with 2-(heteroaryl)amino substituents and their anti-microbial activity” (priority 2010, dated 2014).
Values after ≈ are worked out from the molar mass of the structure shown.

These compounds were tested on Mycobacterium tuberculosis H37Rv strains (assay: In vitro assay for antimicrobial susceptibility (microplate Alamar blue MIC)). Conditions: Mycobacterium tuberculosis, H37RV, in vitro, Mycobacterium tuberculosis H37Rv strains; read-out: MIC (μg/mL) against H37Rv.
Format: cell-based
In the case of `Cc1ccc(Nc2cc3nc4ccccc4n(-c4ccc(F)cc4)c-3c/c2=N\C2CCCCC2)cn1` [TBI-905, 5-(4-Fluorophenyl)-3-cyclohexylimino-2-(6-methyl-3-pyridyl)amino-3,5-dihydrophenazine], the MIC is reported as 0.057 µg/mL (≈ 0.119 µM). `Cc1ccc(Nc2cc3nc4ccccc4n(-c4ccc(F)cc4)c-3c/c2=N\[C@H]2CC[C@H](O)CC2)cn1` [TBI-906, 5-(4-Fluorophenyl)-3-(1′,4′-trans-4-hydroxycyclohexyl)imino-2-(6-methyl-3-pyridyl)amino-3,5-dihydrophenazine] was tested, and the MIC was 0.5 µg/mL (≈ 1.01 µM). `CO[C@H]1CC[C@H](/N=c2\cc3n(-c4ccc(F)cc4)c4ccccc4nc-3cc2Nc2ccc(C)nc2)CC1` [TBI-907, 5-(4-Fluorophenyl)-3-(1′,4′-trans-4-methoxycyclohexyl)imino-2-(6-methyl-3-pyridyl)amino-3,5-dihydrophenazine] was tested, and the MIC was 0.063 µg/mL (≈ 0.124 µM). Compound `Cc1ccc(Nc2cc3nc4ccccc4n(-c4ccc(F)cc4)c-3c/c2=N\C2CC2)cn1` [TBI-908, 5-(4-Fluorophenyl)-3-cyclopropylimino-2-(6-methyl-3-pyridyl)amino-3,5-dihydrophenazine] has an MIC of 0.03 µg/mL (≈ 0.0689 µM). In the case of `CC(=O)Nc1ccc(Nc2cc3nc4ccccc4n(-c4ccc(F)cc4)c-3c/c2=N\C(C)C)cn1` [TBI-910, 5-(4-Fluorophenyl)-3-(1-methylethyl)imino-2-(6-acetamino-3-pyridyl)amino-3,5-dihydrophenazine], the MIC is reported as 0.147 µg/mL (≈ 0.306 µM). Compound `CC(=O)Nc1ccc(Nc2cc3nc4ccccc4n(-c4ccc(F)cc4)c-3c/c2=N\C2CCOCC2)cn1` [TBI-911, 5-(4-Fluorophenyl)-3-(4-tetrahydropyranyl)imino-2-(6-acetamino-3-pyridyl)amino-3,5-dihydrophenazine] has an MIC of 0.36 µg/mL (≈ 0.689 µM). In the case of `CC(=O)Nc1ccc(Nc2cc3nc4ccccc4n(-c4ccc(F)cc4)c-3c/c2=N\C2CCN(C)CC2)cn1` [TBI-912, 5-(4-Fluorophenyl)-3-(N-methyl-4-piperidyl)imino-2-(6-acetamino-3-pyridyl)amino-3,5-dihydrophenazine], the MIC is reported as 0.351 µg/mL (≈ 0.655 µM). In the case of `CC(=O)Nc1ccc(Nc2cc3nc4ccccc4n(-c4ccc(F)cc4)c-3c/c2=N\C2CCN(CC(C)C)CC2)cn1` [TBI-913, 5-(4-Fluorophenyl)-3-(N-isobutyl-4-piperidyl)imino-2-(6-acetamino-3-pyridyl)amino-3,5-dihydrophenazine], the MIC is reported as 0.144 µg/mL (≈ 0.249 µM). For `Cc1ccc(Nc2cc3nc4ccc(F)cc4n(-c4ccc(Cl)cc4)c-3c/c2=N\C(C)C)cn1` [TBI-914, 7-Fluoro-5-(4-chlorophenyl)-3-(1-methylethyl)imino-2-(6-methyl-3-pyridyl)amino-3,5-dihydrophenazine], the MIC was > 0.5 µg/mL. Compound `CO[C@H]1CC[C@H](/N=c2\cc3n(-c4ccc(F)cc4)c4ccccc4nc-3cc2Nc2ccc(NC(C)=O)nc2)CC1` [TBI-915, 5-(4-Fluorophenyl)-3-(1′,4′-trans-4-methoxycyclohexyl)imino-2-(6-acetamino-3-pyridyl)amino-3,5-dihydrophenazine] has an MIC of 0.211 µg/mL (≈ 0.383 µM). For `CC(=O)Nc1ccc(Nc2cc3nc4ccccc4n(-c4ccc(F)cc4)c-3c/c2=N\C2CCCCC2)cn1` [TBI-916, 5-(4-Fluorophenyl)-3-cyclohexylimino-2-(6-acetamino-3-pyridyl)amino-3,5-dihydrophenazine], the MIC was 0.014 µg/mL (≈ 0.0269 µM). For `CC(=O)Nc1ccc(Nc2cc3nc4ccccc4n(-c4ccc(F)cc4)c-3c/c2=N\[C@H]2CC[C@H](O)CC2)cn1` [TBI-917, 5-(4-Fluorophenyl)-3-(1′,4′-trans-4-hydroxycyclohexyl)imino-2-(6-acetamino-3-pyridyl)amino-3,5-dihydrophenazine], the MIC was 1 µg/mL (≈ 1.86 µM). Compound `Cc1ccc(Nc2cc3nc4ccc(F)cc4n(-c4ccc(Cl)cc4)c-3c/c2=N\C2CCCCC2)cn1` [TBI-918, 7-Fluoro-5-(4-chlorophenyl)-3-cyclohexylimino-2-(6-methyl-3-pyridyl)amino-3,5-dihydrophenazine] has an MIC of 0.253 µg/mL (≈ 0.494 µM). Compound `Fc1ccc(-n2c3c/c(=N\C4CCCCC4)c(Nc4cccnc4)cc-3nc3ccccc32)cc1` [TBI-920, 5-(4-Fluorophenyl)-3-cyclohexylimino-2-(3-pyridyl)amino-3,5-dihydrophenazine] has an MIC of 0.029 µg/mL (≈ 0.0626 µM). With `O[C@H]1CC[C@H](/N=c2\cc3n(-c4ccc(F)cc4)c4ccccc4nc-3cc2Nc2cccnc2)CC1` [TBI-921, 5-(4-Fluorophenyl)-3-(1′,4′-trans-4-hydroxycyclohexyl)imino-2-(3-pyridyl)amino-3,5-dihydrophenazine] the MIC was 0.434 µg/mL (≈ 0.905 µM). Work on `Fc1ccc(-n2c3c/c(=N\C4CC4)c(Nc4cccnc4)cc-3nc3ccccc32)cc1` [TBI-922, 5-(4-Fluorophenyl)-3-cyclopropylimino-2-(3-pyridyl)amino-3,5-dihydrophenazine] yielded an MIC of 0.012 µg/mL (≈ 0.0285 µM). For `Fc1ccc(-n2c3c/c(=N\C4CCC4)c(Nc4cccnc4)cc-3nc3ccccc32)cc1` [TBI-923, 5-(4-Fluorophenyl)-3-cyclobutylimino-2-(3-pyridyl)amino-3,5-dihydrophenazine], the MIC was 0.021 µg/mL (≈ 0.0482 µM). Work on `COc1ncccc1Nc1cc2nc3ccc(F)cc3n(-c3ccc(Cl)cc3)c-2c/c1=N\C1CCC(OC)CC1` (centres unmarked) [TBI-924] yielded an MIC of 0.06 µg/mL (≈ 0.108 µM). In the case of `COC1CCC(/N=c2\cc3n(-c4ccc(Cl)cc4)c4cc(F)ccc4nc-3cc2Nc2ccc(C)nc2)CC1` (centres unmarked) [TBI-925], the MIC is reported as 0.078 µg/mL (≈ 0.144 µM). With `COc1ncccc1Nc1cc2nc3ccc(F)cc3n(-c3ccc(Cl)cc3)c-2c/c1=N\C1CCCCC1` [TBI-927, 7-Fluoro-5-(4-chlorophenyl)-3-cyclohexylimino-2-(2-methoxy-3-pyridyl)amino-3,5-dihydrophenazine] the MIC was 0.04 µg/mL (≈ 0.0758 µM). `COc1ncccc1Nc1cc2nc3ccc(F)cc3n(-c3ccc(Cl)cc3)c-2c/c1=N\C1CCOCC1` [TBI-928] gave an MIC of 0.5 µg/mL (≈ 0.943 µM). In the case of `COc1ncccc1Nc1cc2nc3cc(F)ccc3n(-c3ccc(Cl)cc3)c-2c/c1=N\C(C)C` [TBI-929, 8-Fluoro-5-(4-chlorophenyl)-3-(1-methylethyl)imino-2-(2-methoxy-3-pyridyl)amino-3,5-dihydrophenazine], the MIC is reported as 0.125 µg/mL (≈ 0.256 µM). With `COc1ccc(Nc2cc3nc4ccccc4n(-c4ccc(F)cc4)c-3c/c2=N\C(C)C)cn1` [TBI-930] the MIC was 0.494 µg/mL (≈ 1.09 µM). With `COc1ccc(Nc2cc3nc4ccccc4n(-c4ccc(F)cc4)c-3c/c2=N\C2CC2)cn1` [TBI-931, 5-(4-Fluorophenyl)-3-cyclopropyimino-2-(6-methoxy-3-pyridyl)amino-3,5-dihydrophenazine] the MIC was 0.238 µg/mL (≈ 0.527 µM). Work on `COc1ccc(Nc2cc3nc4ccccc4n(-c4ccc(F)cc4)c-3c/c2=N\C2CCCCC2)cn1` [TBI-932, 5-(4-Fluorophenyl)-3-cyclohexylimino-2-(6-methoxy-3-pyridyl)amino-3,5-dihydrophenazine] yielded an MIC of 0.148 µg/mL (≈ 0.3 µM). With `COc1ccc(Nc2cc3nc4ccccc4n(-c4ccc(F)cc4)c-3c/c2=N\[C@H]2CC[C@H](OC)CC2)cn1` [TBI-933, 5-(4-Fluorophenyl)-3-(1′,4′-trans-4-methoxycyclohexyl)imino-2-(6-methoxy-3-pyridyl)amino-3,5-dihydrophenazine] the MIC was 0.175 µg/mL (≈ 0.334 µM). In the case of `COc1ccc(Nc2cc3nc4ccccc4n(-c4ccc(F)cc4)c-3c/c2=N\C2CCC2)cn1` [TBI-934, 5-(4-Fluorophenyl)-3-cyclobutylimino-2-(6-methoxy-3-pyridyl)amino-3,5-dihydrophenazine], the MIC is reported as 0.3 µg/mL (≈ 0.644 µM). For `COc1ccc(Nc2cc3nc4ccccc4n(-c4ccc(F)cc4)c-3c/c2=N\C2CCOCC2)cn1` [TBI-935, 5-(4-Fluorophenyl)-3-(4-tetrahydropyranyl)imino-2-(6-methoxy-3-pyridyl)amino-3,5-dihydrophenazine], the MIC was 0.205 µg/mL (≈ 0.414 µM). For `COc1ncccc1Nc1cc2nc3cc(F)ccc3n(-c3ccc(Cl)cc3)c-2c/c1=N\C1CCC(OC)CC1` (centres unmarked) [TBI-936, 8-Fluoro-5-(4-chlorophenyl)-3-(4-methoxycyclohexyl)imino-2-(2-methoxy-3-pyridyl)amino-3,5-dihydrophenazine], the MIC was 0.06 µg/mL (≈ 0.108 µM). `COc1ncccc1Nc1cc2nc3cc(F)ccc3n(-c3ccc(Cl)cc3)c-2c/c1=N\C1CCOCC1` [TBI-937, 8-Fluoro-5-(4-chlorophenyl)-3-(4-tetrahydropyranyl)imino-2-(2-methoxy-3-pyridyl)amino-3,5-dihydrophenazine] was tested, and the MIC was 0.125 µg/mL (≈ 0.236 µM). In the case of `COC1CCC(/N=c2\cc3n(-c4ccc(Cl)cc4)c4ccc(F)cc4nc-3cc2Nc2ccc(C)nc2)CC1` (centres unmarked) [TBI-938, 8-Fluoro-5-(4-chlorophenyl)-3-(4-methoxycyclohexyl)imino-2-(6-methyl-3-pyridyl)amino-3,5-dihydrophenazine], the MIC is reported as 0.125 µg/mL (≈ 0.231 µM). In the case of `COc1ccc2nc3cc(Nc4cccnc4OC)/c(=N/C(C)C)cc-3n(-c3ccc(Cl)cc3)c2c1` [TBI-939, 7-Methoxy-5-(4-chlorophenyl)-3-(1-methylethyl)imino-2-(2-methoxy-3-pyridyl)amino-3,5-dihydrophenazine], the MIC is reported as 0.125 µg/mL (≈ 0.25 µM). In the case of `Cc1ccncc1Nc1cc2nc3ccccc3n(-c3ccc(F)cc3)c-2c/c1=N\C1CC1` [TBI-940, 5-(4-Fluorophenyl)-3-cyclopropylimino-2-(4-methyl-3-pyridyl)amino-3,5-dihydrophenazine], the MIC is reported as 0.062 µg/mL (≈ 0.142 µM). `COc1ccc2nc3cc(Nc4cccnc4OC)/c(=N/C4CCC(OC)CC4)cc-3n(-c3ccc(Cl)cc3)c2c1` (centres unmarked) [TBI-941, 7-Methoxy-5-(4-chlorophenyl)-3-(4-methoxycyclohexyl)imino-2-(2-methoxy-3-pyridyl)amino-3,5-dihydrophenazine] was tested, and the MIC was 0.06 µg/mL (≈ 0.105 µM). `COc1ccc2nc3cc(Nc4cccnc4OC)/c(=N/C4CCOCC4)cc-3n(-c3ccc(Cl)cc3)c2c1` [TBI-942, 7-Methoxy-5-(4-chlorophenyl)-3-(4-tetrahydropyranyl)imino-2-(2-methoxy-3-pyridyl)amino-3,5-dihydrophenazine] gave an MIC of 0.125 µg/mL (≈ 0.231 µM). `Cc1ccc(Nc2cc3nc4cc(F)ccc4n(-c4ccc(Cl)cc4)c-3c/c2=N\C(C)C)cn1` [TBI-943, 8-Fluoro-5-(4-chlorophenyl)-3-(1-methylethyl)imino-2-(6-methyl-3-pyridyl)amino-3,5-dihydrophenazine] was tested, and the MIC was 0.06 µg/mL (≈ 0.127 µM). `Cc1ccc(Nc2cc3nc4ccccc4n(-c4ccc(Cl)c(Cl)c4)c-3c/c2=N\C2CC2)cn1` [TBI-944, 5-(3,4-Dichlorophenyl)-3-cyclopropylimino-2-(6-methyl-3-pyridyl)amino-3,5-dihydrophenazine] showed an MIC of 0.06 µg/mL (≈ 0.123 µM).

Same assay, conditions: in vitro, Mycobacterium tuberculosis H37Rv strains
`COc1ncccc1Nc1cc2nc3ccc(F)cc3n(-c3ccc(Cl)cc3)c-2c/c1=N\C(C)C` [TBI-926, 7-Fluoro-5-(4-chlorophenyl)-3-(1-methylethyl)imino-2-(2-methoxy-3-pyridyl)amino-3,5-dihydrophenazine] was tested, and the “MIC (μg/mL) against H37Rv” value was 0.103 µg/mL (≈ 0.211 µM).
